Results published in patent US7429396B2, “Antifungal composition, its fungicidal effect on pathogenic dermatophytes, and process for inhibiting growth of fungi” (Bio-Botanica, Inc., priority 2003, dated 2008).
Where “and” joins values, the source holds several entries; their conditions need not be identical. Equal entries are not always repeated.

Assays:
M. smegmatis ATCC 14468 = experiment: Agar Dilution susceptibility method (Example 5); format: cell-based, Mycobacterium smegmatis
Procedure: (§1) The Agar Dilution susceptibility method was used to test the effectiveness of the antimicrobial composition of Example 1. The organisms used were S. aureus ATCC 29213, E. coli ATCC 25922, S. typhimurium ATCC 14028, K. pneumoniae ATCC 10031, P. aeruginosa ATCC 27853, C. albicans ATCC 10231, and M. smegmatis ATCC 14468. The organisms were maintained on Tryptic Soy Agar (TSA) slants. For each week, the organisms were cultured in 10 ml of Tryptic Soy Broth (TSB). After incubation at 37° C. for 17 hours (48 hours for M. smegmatis), the organism suspensions were diluted with 10 ml of sterile saline as shown in Table 4. The mold Aspergillus niger was sustained on a Sabouraud Dextrose Agar slant. The sample was then cultured in 10 ml of Tryptic Soy Broth and incubated for 7 days at 22° C. The mold was then diluted in 0.1% Tween 80 in saline. The diluted bacteria and yeast organisms were then inoculated onto the prepared sample plates with a 1 μl loop. The mold Aspergillus niger was added to prepared sample tubes with a 100 μl pipette.
(§2) Phenyloxyethanol (PE), phenylethyl alcohol (PEA) and methyl/propylparabens (MP) in a ratio of 5:4 were initially screened at their commonly recommended effective concentrations of 0.3% v/v (3 μl/ml); 1% v/v (10 μl/ml); and 0.18% w/v (1 mg methyl and 0.8 mg propylparaben/ml), respectively. The antimicrobial agent was used at an initial concentration of 0.15% v/v (1.5 μl/ml).
(§3) The sample plates for the bacteria and yeast were prepared as follows: • Prepare 10 ml tubes of TSA and allow to cool to 50° C., • Add the calculated amount of the preservative or antimicrobial agent to 100 μl dimethylsulfoxide (DMSO) to achieve the specified concentration per ml TSA when 100 μl of the DMSO solution are added to a test tube containing 10 ml of TSA, • Vortex to homogenize the mixture in TSA, • Pour TSA and the preservative or antimicrobial agent into a properly labeled Petri dish, • Allow to cool overnight at room temperature.
(§4) The prepared sample plates were divided into seven sections and the plates labeled according to the preservative or antimicrobial agent. Each section was labeled according to the microorganism to be applied to each section. The diluted organism suspensions were inoculated onto their appropriate section with a 1 μl loop, streaking radially from the center to the outer edge of the plate. A positive control plate was prepared without a preservative or antimicrobial agent of Example 1. The plates were then incubated at 37° C. for 48 hours, recording the results at 24 and 48 hours.
(§5) The results for the bacteria and yeast were scored in relation to the growth present on the positive control plate. Growth (G) was noted when there was full growth visible and the organism was not affected. […]

[1] = test system: all microorganisms tested; experiment: Agar/broth dilution, inhibition of all microorganisms tested (Example 5); format: cell-based
Procedure: as §1, with “The sample was then cultured in 10 ml of Tryptic Soy Broth and incubated for 7 days at 22° C. The mold was then diluted in 0.1% Tween 80 in saline. The diluted bacteria and yeast organisms were then inoculated onto the prepared sample plates with a 1 μl loop. The mold Aspergillus niger was added to prepared sample tubes with a 100 μl pipette.” left out
as §3, with “temperature. […]” for “temperature.”
The results for the bacteria and yeast were scored in relation to the growth present on the positive control plate. […]

C. albicans ATCC 10231 = experiment: Agar Dilution susceptibility method (Example 5); format: cell-based, Candida albicans
Procedure: as §1, §2, §3, §4, §5

Minimum Inhibitory Concentration (MIC) (sample/ml of agar or broth) (M. smegmatis ATCC 14468): 2.5 μl/ml
MIC capable of inhibiting all the tested organisms [1]: 6.0 μl/ml
Minimum Inhibitory Concentration (MIC) (sample/ml of agar or broth) (C. albicans ATCC 10231): 2.5 μl/ml and 3.0 μl/ml
Compound: OCCc1ccccc1 [Phenylethyl Alcohol]
growth score (M. smegmatis ATCC 14468; 3.0 μl/ml): I
growth score (M. smegmatis ATCC 14468; 5.0 μl/ml): I
growth score (M. smegmatis ATCC 14468; 6.0 μl/ml): I
growth score (C. albicans ATCC 10231; 3.0 μl/ml): I
growth score (C. albicans ATCC 10231; 5.0 μl/ml): I
growth score (C. albicans ATCC 10231; 6.0 μl/ml): I
